Eleven compounds from patent US10188634B2, “3-(3H-imidazo[4,5-C]pyridin-2-yl)-1 H-pyrazolo[4,3-B]pyridines and therapeutic uses thereof” (Samumed, LLC, priority 2015, dated 2019) can be followed below.

Usually EC50 stands for the concentration needed to bring the measured effect to its halfway point. A low value points to an effect from little substance. As a reminder, the inhibition is how much of the control response was suppressed.

The experiment deals with LL29 cells (primary human fibroblasts derived from IPF patients) treated with TGF-β1, α-smooth muscle actin. Description: Inhibition of the fibrotic process: αSMA staining in TGF-β1 treated primary human fibroblasts from IPF patients (LL29 cells). It is filed as cell-based. The settings on record: Fibroblast, 96 h; for EC50: LL29 cells treated with TGF-β1 (20 ng/mL), 4 days; for inhibition at 10 µM: LL29 cells treated with TGF-β1, 4 days, read-out: percent inhibition in brackets (given for EC50 >10 μM).

Take `CN1CCN(c2cncc3[nH]c(-c4n[nH]c5ccc(-c6cnccn6)nc45)nc23)CC1` [Compound 620, 3-(7-(4-Methylpiperazin-1-yl)-3H-imidazo[4,5-c]pyridin-2-yl)-5-(pyrazin-2-yl)-1H-pyrazolo[4,3-b]pyridine]: the half-maximal effective concentration (EC50) was above 10 µM and the inhibition at 10 µM is 34.1%.

In the case of `O=C(Nc1cncc(-c2ccc3[nH]nc(-c4nc5c(-c6cccc(F)c6)cncc5[nH]4)c3n2)c1)C1CC1` [Compound 20, N-(5-(3-(7-(3-Fluorophenyl)-3H-imidazo[4,5-c]pyridin-2-yl)-1H-pyrazolo[4,3-b]pyridin-5-yl)pyridin-3-yl)cyclopropanecarboxamide], the EC50 was above 10 µM and the inhibition at 10 µM worked out at 0%.

Turning to `Fc1ccccc1-c1cncc2[nH]c(-c3n[nH]c4ccc(-c5ccccn5)nc34)nc12` [Compound 84, 3-(7-(2-Fluorophenyl)-3H-imidazo[4,5-c]pyridin-2-yl)-5-(pyridin-2-yl)-1H-pyrazolo[4,3-b]pyridine], the EC50 is above 10 µM and the inhibition at 10 µM stood at 29.7%.

As to `Cc1ncc(-c2ccc3[nH]nc(-c4nc5c(-c6ccoc6)cncc5[nH]4)c3n2)n1C` [Compound 641, 5-(1,2-Dimethyl-1H-imidazol-5-yl)-3-(7-(furan-3-yl)-3H-imidazo[4,5-c]pyridin-2-yl)-1H-pyrazolo[4,3-b]pyridine], the half-maximal effective concentration (EC50) was above 10 µM and the inhibition at 10 µM was determined as 0%.

Compound `O=C(CC1CCNCC1)Nc1cncc(-c2ccc3[nH]nc(-c4nc5c(-c6ccccn6)cncc5[nH]4)c3n2)c1` [Compound 565, 2-(Piperidin-4-yl)-N-(5-(3-(7-(pyridin-2-yl)-3H-imidazo[4,5-c]pyridin-2-yl)-1H-pyrazolo[4,3-b]pyridin-5-yl)pyridin-3-yl)acetamide] yielded an EC50 of 0.839 µM.

In turn, `O=C(CC1CCNCC1)Nc1cncc(-c2ccc3[nH]nc(-c4nc5c(-c6ccsc6)cncc5[nH]4)c3n2)c1` [Compound 629, 2-(Piperidin-4-yl)-N-(5-(3-(7-(thiophen-3-yl)-3H-imidazo[4,5-c]pyridin-2-yl)-1H-pyrazolo[4,3-b]pyridin-5-yl)pyridin-3-yl)acetamide] showed an EC50 of 2.54 µM.

For `Oc1cncc(-c2ccc3[nH]nc(-c4nc5c(N6CCCCC6)cncc5[nH]4)c3n2)c1` [Compound 585, 5-(3-(7-(Piperidin-1-yl)-3H-imidazo[4,5-c]pyridin-2-yl)-1H-pyrazolo[4,3-b]pyridin-5-yl)pyridin-3-ol], the concentration for a half-maximal effect (EC50) was above 10 µM and the inhibition at 10 µM stood at 39.1%.

As to `Cc1cn(-c2cncc3[nH]c(-c4n[nH]c5ccc(-c6cncc(OCCN(C)C)c6)nc45)nc23)cn1` [Compound 599, N,N-Dimethyl-2-((5-(3-(7-(4-methyl-1H-imidazol-1-yl)-3H-imidazo[4,5-c]pyridin-2-yl)-1H-pyrazolo[4,3-b]pyridin-5-yl)pyridin-3-yl)oxy)ethan-1-amine], the EC50 is above 10 µM and the inhibition at 10 µM was 15.4%.

Take `Cc1cn(-c2cncc3[nH]c(-c4n[nH]c5ccc(C6=CCNCC6)nc45)nc23)cn1` [Compound 590, 3-(7-(4-Methyl-1H-imidazol-1-yl)-3H-imidazo[4,5-c]pyridin-2-yl)-5-(1,2,3,6-tetrahydropyridin-4-yl)-1H-pyrazolo[4,3-b]pyridine]: the EC50 was above 10 µM and the inhibition at 10 µM turned out to be 36.8%.

Consider `c1ncc(-c2ccc3[nH]nc(-c4nc5c(N6CCCCC6)cncc5[nH]4)c3n2)cc1OCCN1CCCC1` [Compound 582, 3-(7-(Piperidin-1-yl)-3H-imidazo[4,5-c]pyridin-2-yl)-5-(5-(2-(pyrrolidin-1-yl)ethoxy)pyridin-3-yl)-1H-pyrazolo[4,3-b]pyridine], for which the EC50 is 3.32 µM.

`c1cc(-c2cncc3[nH]c(-c4n[nH]c5ccc(-c6cncc(CNCC7CCCC7)c6)nc45)nc23)co1` [Compound 305, 1-Cyclopentyl-N-((5-(3-(7-(furan-3-yl)-3H-imidazo[4,5-c]pyridin-2-yl)-1H-pyrazolo[4,3-b]pyridin-5-yl)pyridin-3-yl)methyl)methanamine]: the EC50 was above 10 µM and the inhibition at 10 µM stood at 0%.
